{"source": "patent US20210113540A1", "about": "“TREATMENT AGENT AND PHARMACEUTICAL COMPOSITION FOR GLIOMA” (NATIONAL UNIVERSITY CORPORATION HOKKAIDO UNIVERSITY, priority 2018, published 2021)", "key": {"[1]": {"test_system": "Glioma-initiating cell E6", "test": "Cell proliferation test (MTT) on GIC strain E6", "type": "cell-based", "details": "Homo sapiens, 72 h, MTT after 3 days", "protocol": "GIC and GICR strain: Cell growth test was performed using E6, E6R, E16, and E16R (Stem Cells. 2016 August; 34(8): 2016-25.).\nCell culture solutions were obtained by mixing a medium prepared by adding various compounds, bFGF (Peprotech, 100-18B) and EGF (Peprotech, 100-15) to DMEM/Ham's F-12 medium (SIGMA, D8062) and a medium prepared by adding FCS (Hyclone, SH30910.03) to DMEM medium (Nacalai tesque, 08458-45) to a concentration of 10% for use.\nEach compound adjusted to a predetermined concentration was dispensed into a 96-well plate (Falcon, 353072) at 80 μL/well, and E6 cells and E6R cells were seeded on the 96-well plate at 1000 cells/80 μL/well. After 3 days, 10 μL of an MTT reagent (DOJINDO, 341-01823) was added, the cells were incubated at 37° C. for 3 hours, the culture solution was removed, and 100 μL of DMSO was added. The absorbance at 570 nm was measured using Bio-Rad iMark (Bio-Rad, 168-1130JA). The growth inhibition rate at each test compound concentration was calculated by the following formula using the absorbance as an index of the viable cell count.\nThe growth inhibition rate at each compound concentration was determined, and the 50% growth inhibition concentration GI50 (μmol/L)] was calculated using XLfit. Growth inhibition rate (%)=(Amount of luminescence from wells supplemented with test compound)/(Amount of luminescence from wells supplemented with DMSO)×100"}, "E6 cells": {"test_system": "E6 cells", "test": "Quantitative determination of metabolites by LC-MS/MS in E6 cells", "type": "cell-based, human", "parameters": "dose or concentration left out as unconfirmed", "details": "24 hours, compared to control DMSO-treated group", "protocol": "Compound 8 was added to GICs (E6, E16) at […] and treated for 24 hours. Cells were washed with a 5% mannitol solution, 70% ice-cold methanol was added, and metabolites were extracted. […] In addition, the amount of orotic acid was decreased in E16 cells."}}, "note": "Like-named read-outs stand apart in the source and are kept apart here.", "data": [{"smiles": "O=C(O)c1cc(C2CC2)cnc1Nc1ccc2c(ccn2-c2ccccc2)c1", "note": "[Compound 8, 5-cyclopropyl-2-((1-phenyl-1H-indole-5-yl)amino)nicotinic acid]", "values": [{"measurement": "GI50", "setting": "[1]; read-out: GI50 (nmol/L) of Glioma-initiating cell E6", "result": "< 7", "unit": "nmol/L"}, {"measurement": "GI50", "setting": "[1]; read-out: GI50 class of Glioma-initiating cell E6", "result": "< 1000", "unit": "nmol/L"}, {"measurement": "increase of the amount of DHO in E6 cells", "setting": "E6 cells", "result": 596, "unit": "fold"}]}]}
